Data reported in US20220152100A1, “METHODS FOR CONTROLLED ACTIVATION OR ELIMINATION OF THERAPEUTIC CELLS” (Bellicum Pharmaceuticals, Inc., priority 2014, published 2022).
Read-outs that look alike come from different tables or passages of the source.

Experiments:
293T cells = experiment: SeAP reporter assay: FRBL-Caspase9 plus FKBPv12-Caspase9 heterodimerization; assay type: cell-based, human
Protocol: HEK 293T cells (5×10^5) were seeded on a 100-mm tissue culture dish in 10 mL DMEM4500, supplemented with glutamine, penicillin/streptomycin and 10% fetal calf serum. After 16-30 hours incubation, cells were transfected using Novagen's GeneJuice® protocol. Briefly, for each transfection, 0.5 mL OptiMEM was pipeted into a 1.5-mL microcentrifuge tube and 15 μL GeneJuice reagent added followed by 5 sec. vortexing. Samples were rested 5 minutes to settle the GeneJuice suspension. DNA (5 μg total) was added to each tube and mixed by pipetting up and down four times. Samples were allowed to rest for 5 minutes for GeneJuice-DNA complex formation and the suspension added dropwise to one dish of 293T cells. A typical transfection contains 1 μg SRα-SEAP (pBP0046) (3), 2 μg FRB-Caspase-9 (pBP0463) and 2 μg FKBPv12-Caspase-9 (pBP0044) (7).
24 hours following transfection (4.1), 293T cells were split to 96-well plates and incubated with dilutions of dimerizing drugs. Briefly, 100 μL media was added to each well of a 96-well flat-bottom plate. Drugs were diluted in tubes to a concentration 4× the top concentration in the gradient to be place on the plate. […] 100 μL from each drug-containing well was then transferred to the adjacent well and the cycle repeated 10 times to produce a serial two-fold step gradient. The last wells were untreated and serve as a control for basal reporter activity. […]
24 hours after drug stimulation, 96-well plates were wrapped to prevent evaporation and incubated at 65®C for 2 hours to inactivate endogenous and serum phosphatases while the heat-stable SeAP reporter remains (1, 4, 12). […] Phosphatase activity was measured by fluorescence with excitation at 355 nm and emission at 460 nm. […]
FIG. 37—Drug induced programmed cell death by homodimerization or heterodimerization of tagged caspase 9. […] Reporter activity is expressed as a percentage of the average of 8 control wells containing no drug. […]
FIG. 38—Rapalog-induced cell death switch. […] Reporter activity is expressed as a percentage of the average of 8 wells containing no drug. […]

293 cells [1] = experiment: SEAP assay: iMC (tandem FKBP) plus FRBL2-Caspase-9; assay type: cell-based, human; conditions: tandem FKBPs (iMC) present
Protocol: FIGS. 16A and 16B are line graphs showing that tandem FKBP scaffold mediates FRBL2. Caspase activation in the presence of rapalogs. FIG. 16A. HEK-293 cells were transfected with 1 μg each of SRα-SEAP reporter plasmid, Δmyr.iMC.2A-anti-CD19.CAR.CD3 (pBP0608), and FRBL2. Caspase-9 (pBP0467). […] After ON incubation, cell supernatants were assayed for SEAP activity, as previously described. FIG. 16B. Similar to the experiment described in (FIG. 16A), except that cells were transfected with a membrane-localized (myristoylated) iMC.2A-CD19.CAR.CD3ζ (pBP0609), instead of non-myristoylated Amyr.iMC.2A-CD19.CAR.CD3ζ (pBP0608).
In a second test for rapalog-mediated scaffold-based activation of Caspase-9, 293 cells were transiently transfected with SRα-SEAP reporter plasmid, plus myristoylated or non-myristoylated inducible iMC co-expressed with 1st generation anti-CD19 CAR, plus FRBL2-fused Caspase-9 (plasmid pBP0467) (FIG. 16). […] Thus, rapamcyin and analogs can activate Caspase-9 via a molecular scaffold comprised of FRB or FKBP12 domains.

293 cells [2] = system: 293 cells
Description: To determine if the polarity of heterodimerization and Caspase-9 assembly could be reversed, one to four 1 to 4 tandem copies of FKBP12 were subcloned into expression vector, pSH1, as above. […] As above, 293 cells were transfected with the SRα-SEAP reporter plasmid along with FRBL-ΔCaspase-9, plus a non-myristoylated scaffold protein containing 1 or 4 tandem copies of FKBP12.

293 cells [3] = experiment: SEAP assay: FRBl2-tagged CAR plus iCaspase-9, two-tiered apoptosis; assay type: cell-based, human
Description: FIGS. 6A and 6B provide the results of an assay of two-tiered activation of apoptosis.
As a proof of principal, two tandem FRBl domains were fused to either a 1st generation Her2-CAR or to a 1st generation CD19-CAR co-expressing inducible Caspase-9. 293 cells were transiently transfected with a constitutive reporter plasmid, SRα-SEAP, along with normalized levels of expression plasmids encoding Her2-CAR-FRBl2, iCaspase-9, Her2-CAR-FRBl2+iCasp9, iC9-CAR(19).FRBl2 (coexpressing both CD19-CAR-FRBl2 and iCaspase9), or control vector. […] After overnight incubation with drugs, SEAP activity was determined. […] This dose-dependent decrease required the presence of both the FRB-tagged CAR and the FKBP-tagged Caspase-9. […] Moreover, on- or off-target-mediated CAR clustering should increase the sensitivity of killing primarily at the site of scFv engagement.

293 cells [4] = system: 293 cells; remark: listed apart in the source
Protocol: FIG. 12B: Cultures of HEK-293 cells were transfected (via Genejuice, Novagen) with the constitutive SRα-SEAP reporter plasmid (pBP0046, 1 μg), a fusion of human FKBP12 with human Caspase-9 (pBP0044, 2 μg) and FRB-encoding expression constructs, containing four copies of FRBL (pBP0725, 2 μg) or control vectors encoding zero or one copy of FRBL. […] FIG. 12C: Reporter assays were performed as in (B), but FRB-scaffolds were expressed from constructs encoding iterated FRBL domains with an amino-terminal myristoylation-targeting sequence and two (pBP0465) or four copies (pBP0721) of the FRBL domain.
A subset of constructs also contained the myristoylation-targeting domain from v-Src for membrane localization of the FRB-scaffold (FIG. 12A). 293 cells were transfected with the SRα-SEAP reporter plasmid along with FKBP12-ΔCaspase-9 (iCaspase-9/CaspaCIDe), plus 1 of several FRB-based, non-myristoylated scaffold proteins containing 0, 1, or 4 tandem copies of FRBL.

[5] = molecular target: Her2-CAR-FRBl2 (1st generation Her2-CAR with two tandem FRBl domains at its carboxy terminus); experiment: cell-based or functional assay
[6] = molecular target: FRBL x4 scaffold, not myristoylated (plasmid pBP0725, pSH1-FRBI.FRBI′.LS.FRBI″.FRBI′′′); experiment: cell-based or functional assay
Sequence of FRBL x4 scaffold, not myristoylated (plasmid pBP0725, pSH1-FRBI.FRBI′.LS.FRBI″.FRBI′′′) (chain, as listed by the source limits assumed): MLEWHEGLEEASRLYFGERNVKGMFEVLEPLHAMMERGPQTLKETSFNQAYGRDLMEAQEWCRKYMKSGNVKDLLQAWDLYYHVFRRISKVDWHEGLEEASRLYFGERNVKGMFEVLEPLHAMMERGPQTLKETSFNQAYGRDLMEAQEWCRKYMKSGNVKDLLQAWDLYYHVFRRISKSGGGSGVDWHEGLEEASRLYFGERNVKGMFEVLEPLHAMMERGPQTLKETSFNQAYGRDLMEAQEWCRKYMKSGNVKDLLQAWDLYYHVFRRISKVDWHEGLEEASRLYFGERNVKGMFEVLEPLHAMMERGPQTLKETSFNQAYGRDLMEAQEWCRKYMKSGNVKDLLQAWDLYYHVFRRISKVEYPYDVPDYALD

[7] = molecular target: CD19-CAR-FRBl2 (1st generation CD19-CAR with two tandem FRBl domains, co-expressed with iCaspase-9 from iC9-CAR(19).FRBl2); experiment: cell-based or functional assay
[8] = molecular target: FKBP12 x4 scaffold (plasmid pBP0722, pSH1-Fpk-Fpk′.LS.Fpk″.Fpk′′′.LS.HA) (Homo sapiens (Human)) (UniProt P62942); experiment: cell-based or functional assay
CD3+ΔCD19+ cells = experiment: CASPALLO phase 1 clinical trial: AP1903 in patients with GvHD after iCasp9+ T cells; conditions: within 24 hours
293 cells [9] = experiment: SEAP assay: iMC.FRBL / iMC.FRBL2 plus Caspase-9; assay type: cell-based, human; conditions: Caspase-9 with iMC.FRBL or iMC.FRBL2 and anti-HER2 CAR
Protocol: HEK-293 cells were transfected with 1 μg of SRα-SEAP constitutive reporter plasmid along with either negative (Neg) control, eGFP (pBP0047), CaspaCIDe (iC9/pBP0044) alone, or CaspaCIDe along with iMC.FRBL (pBP0655)+anti-HER2.CAR.Fpk2 (pBP0488) or iMC.FRBL2 (pBP0498)+anti-HER2.CAR.Fpk2. Cells were then plated with half-log dilutions of rimiducid or rapamycin and assayed for SEAP as previously described. Diminution of SEAP activity correlates with cell elimination. Schematic represents one possible rapamycin-mediated complex of signaling domains, which lead to Caspase-9 clustering and apoptosis.
To determine if multimers of FRB would still act as a recruitment scaffold to enable rapalog-mediated Caspase-9 dimerization when attached to another signaling domain, 1 or 2 FRBL domains were fused to the potent chimeric stimulatory molecule, MyD88/CD40, to derive iMC.FRBL (pBP0655) and iMC.FRBL2 (pBP0498), respectively (FIG. 9B). As an initial test, 293 cells were transiently transfected with reporter plasmid SRα-SEAP, Caspase-9, a 1st generation anti-HER2 CAR (pBP0488) and (pBP0655 or pBP0498) (FIG. 15). Control transfections contained Caspase-9 (pBP0044) alone or eGFP expression vector (pBP0047). […] Thus, heterodimerizer-mediated activation of Caspase-9 is possible in cells containing multimers of FRBL fused to distinct proteins, such as MyD88/CD40.

[10] = molecular target: wt FRB (K2095 T2098 W2101) (Homo sapiens, UniProt P42345+P62942); conditions: cited from earlier work
[11] = FRBL-Caspase9 plus FKBPv12-Caspase9

## COC1CC(CC(C)C2CC(=O)C(C)C=C(C)C(O)C(OC)C(=O)C(C)CC(C)C=CC=CC=C(C)C(OC(C)C)CC3CCC(C)C(O)(O3)C(=O)C(=O)N3CCCCC3C(=O)O2)CCC1O (stereo not shown) [C7-isopropoxy-rapamycin, C7-isopropoxyrapamycin]
293T cells; [11]
  cell death (loss of SeAP reporter): dose-dependent high efficacy cell death switch
293 cells [1]
  activation of FRBL2-Caspase-9: activated

## CO[C@H]1C[C@@H]2CC[C@@H](C)[C@@](O)(O2)C(=O)C(=O)N2CCCC[C@H]2C(=O)O[C@H]([C@H](C)C[C@@H]2CC[C@@H](O)[C@H](OC)C2)CC(=O)[C@H](C)/C=C(\C)[C@@H](O)[C@@H](OC)C(=O)[C@H](C)C[C@H](C)/C=C/C=C/C=C/1C [rapamycin]
293 cells [2]
  IC50: ~3 nM
293 cells [3]; FRB-tagged CAR and FKBP-tagged Caspase-9, overnight
  decrease of SEAP activity: ~50%
293 cells [4]
  IC50: ~3 nM

## FKBP12v36-ΔCaspase-9 fusion protein (iCaspase-9; plasmid pBP0044, pSH1-iCaspase9wt)
[5]
  SRα-SEAP reporter activity after overnight rapamycin in transfected 293 cells: 50 % decrease
[6]
  IC50 of rapamycin or C7-isopropoxy-rapamycin for diminution of constitutive SRα-SEAP reporter activity (cell death) in transfected 293 cells: 3 nM
[7]
  SRα-SEAP reporter activity after overnight rapamycin in transfected 293 cells: 50 % decrease

## FRBL-ΔCaspase-9 fusion protein (plasmid pBP0463, pSH1-FRBL.dCaspase9.T2A)
[8]
  IC50 of rapamycin or C7-isopropoxy-rapamycin for diminution of constitutive SRα-SEAP reporter activity (cell death) in transfected 293 cells: 3 nM

## CC[C@H](C(=O)N1CCCC[C@H]1C(=O)O[C@H](CCc1ccc(OC)c(OC)c1)c1cccc(OCC(=O)NCCNC(=O)COc2cccc([C@@H](CCc3ccc(OC)c(OC)c3)OC(=O)[C@@H]3CCCCN3C(=O)[C@@H](CC)c3cc(OC)c(OC)c(OC)c3)c2)c1)c1cc(OC)c(OC)c(OC)c1 (relative stereo) [AP1903, 2-Piperidinecarboxylic acid, 1-[(2S)-1-oxo-2-(3,4,5-trimethoxyphenyl)butyl]-, 1,2-ethanedilbis[imino(2-oxo-2,1-ethanediyl)oxy-3,1-phenyleneR1R)-3-(3,4-dimethoxyphenyl)propylidene]] ester, [2S-[1(R*),2R*[S*[S*[1(R*),2R*]]]]]-(9CI)]
293T cells; FKBPv12-Caspase-9 with control vector or FRB without caspase fusion
  cell death (loss of SeAP reporter): effectively permitted homodimerization and induction of Caspase-9
293T cells; [11]
  cell death (loss of SeAP reporter): dose-dependent homodimerization of only FKBP12-Caspase9, leading to dimerization and activation of apoptosis
293 cells [3]; iCaspase-9, overnight
  SEAP activity, of normal levels: about 20%
CD3+ΔCD19+ cells
  further reduction of CD3+ΔCD19+ cells: further log reduction
293 cells [9]
  SEAP reduction / cell killing: killed by Caspase-9 homodimerization
293 cells [1]
  activation of FRBL2-Caspase-9: not activated

## S-Butanesulfonamidorap [S-Butanesulfonamidorap (AP23050)]
[10]
  EC50: ~2.7 nM
